The compounds below were run against T1, recombinant human serotonin receptor 5-HT2A (Homo sapiens, UniProt P28223) (assay: 5-HT2A antagonist Ca2+ assay in CHO-K1 cells (method A aequorin luminescence / method B FLIPR fluorescence)). Conditions: antagonist mode vs EC80 of reference agonist, method A or B, read-out: 5HT2A IC50.
T1 construct: expressed in transfected cells; method B: loaded with Ca2+ dye
Assay type: cell-based
How it was run: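 IC50 was obtained by nonlinear regression of percent inhibition of the EC80 agonist Ca2+ response in CHO-K1 cells stably expressing human 5-HT2A. The readout was aequorin luminescence with agonist injected 15 min after compound (A), or Ca2+-dye fluorescence on FLIPR with serotonin as agonist (B).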

T1 sequence (P28223 whole entry): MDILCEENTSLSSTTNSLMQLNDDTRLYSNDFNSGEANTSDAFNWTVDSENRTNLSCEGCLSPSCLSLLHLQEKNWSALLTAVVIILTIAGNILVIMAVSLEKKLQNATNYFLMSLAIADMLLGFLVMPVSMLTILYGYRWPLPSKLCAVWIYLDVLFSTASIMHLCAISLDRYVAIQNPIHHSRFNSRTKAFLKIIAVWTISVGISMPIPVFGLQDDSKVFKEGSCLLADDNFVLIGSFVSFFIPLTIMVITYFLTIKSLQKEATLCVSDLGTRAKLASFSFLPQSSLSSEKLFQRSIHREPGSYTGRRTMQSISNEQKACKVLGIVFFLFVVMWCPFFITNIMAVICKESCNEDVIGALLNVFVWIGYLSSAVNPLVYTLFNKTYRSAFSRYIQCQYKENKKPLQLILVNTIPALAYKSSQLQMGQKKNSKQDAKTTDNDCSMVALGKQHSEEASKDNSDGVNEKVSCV

Row | IC50 [nM] | SMILES
1 | > 3160 | COc1ccc2c(c1)C(CN1CCC(Oc3cncnc3)CC1)CC2 (stereo not shown) [Example 126, 5-((1-((6-methoxy-2,3-dihydro-1H-inden-1-yl)methyl)piperidin-4-yl)oxy)pyrimidine]
2 | > 3160 | O=C1c2ccccc2CCN1CCN1CC[C@@H]2C[C@H]1CN2c1ccccc1 [Example 324, 2-(2-((1S,5R)-6-phenyl-2,6-diazabicyclo[3.2.1]octan-2-yl)ethyl)-3,4-dihydroisoquinolin-1(2H)-one]
3 | 3990 | COc1ccc2c(c1)C(CN1CCC[C@H](Oc3ccc(F)cc3)C1)CC2 (stereo partly drawn) [Example 256, (3S)-3-(4-fluorophenoxy)-1-((6-methoxy-2,3-dihydro-1H-inden-1-yl)methyl)piperidine]
4 | 10400 | O[C@@H](COC1CCCCC1)CN1CCC[C@@H](Oc2ccc(F)cc2)C1 [Example 267, (R)-1-(cyclohexyloxy)-3-((R)-3-(4-fluorophenoxy)piperidin-1-yl)propan-2-ol]
5 | > 1000 | COc1ccccc1OC1CCN(CC2(C)Cc3ccccc3C2)CC1 [Example 146, 4-(2-methoxyphenoxy)-1-((2-methyl-2,3-dihydro-1H-inden-2-yl)methyl)piperidine]
6 | > 16700 | OC(COC1CCCCC1)CN1CCCC12CCN(c1ccccc1)C2 (stereo not shown) [Example 349, 1-(cyclohexyloxy)-3-(7-phenyl-1,7-diazaspiro[4.4]nonan-1-yl)propan-2-ol]
7 | 20 | COc1ccccc1O[C@H]1CCN(CCN2CCc3ccccc3C2=O)[C@@H]1C [Example 18, 2-(2-((2R,3S)-3-(2-methoxyphenoxy)-2-methylpyrrolidin-1-yl)ethyl)-3,4-dihydroisoquinolin-1(2H)-one]
8 | 410 | CC1Cc2ccccc2C(=O)N1CCN1CCC(Oc2cccc(Cl)c2)CC1 (stereo not shown) [Example 198, 2-(2-(4-(3-chlorophenoxy)piperidin-1-yl)ethyl)-3-methyl-3,4-dihydroisoquinolin-1(2H)-one]
9 | > 12900 | Fc1ccc(O[C@H]2CCCN(CCC3CCOc4ccccc43)C2)cc1 (stereo partly drawn) [Example 263, (3S)-1-(2-(chroman-4-yl)ethyl)-3-(4-fluorophenoxy)piperidine]
10 | 1450 | Fc1ccc(O[C@H]2CCN(CC3CCc4ncccc43)C2)cc1 (stereo partly drawn) [Example 4, 5-(((S)-3-(4-fluorophenoxy)pyrrolidin-1-yl)methyl)-6,7-dihydro-5H-cyclopenta[b]pyridine]
11 | > 16700 | OC(COC1CCCCC1)CN1CCC2(CCCN2c2ccccc2)CC1 (stereo not shown) [Example 355, 1-(cyclohexyloxy)-3-(1-phenyl-1,8-diazaspiro[4.5]decan-8-yl)propan-2-ol]
12 | 1440 | O=C1CC2(CCN(CC3CCc4ccccc43)CC2)Oc2ccccc21 (stereo not shown) [Example 444, l′-((2,3-dihydro-1H-inden-1-yl)methyl)spiro[chromane-2,4′-piperidin]-4-one]
13 | 90 | O[C@@H](COC1CCCCC1)CN1CC2(CC(Oc3ccccc3)CO2)C1 (stereo partly drawn) [Example 372, (2R)-1-(cyclohexyloxy)-3-(7-phenoxy-5-oxa-2-azaspiro[3.4]octan-2-yl)propan-2-ol]
14 | > 12000 | COCc1ccc(OC2CCN(CC3CCc4ncccc43)CC2)cc1 (stereo not shown) [Example 127, 5-((4-(4-(methoxymethyl)phenoxy)piperidin-1-yl)methyl)-6,7-dihydro-5H-cyclopenta[b]pyridine]
15 | 20 | Fc1ccc(OC2CCCN(CC3Cc4cccnc4C3)CC2)cc1 (stereo not shown) [Example 273, 6-((4-(4-fluorophenoxy)azepan-1-yl)methyl)-6,7-dihydro-5H-cyclopenta[b]pyridine]
16 | 3280 | COc1ccccc1N1CCC2(CCN(CC3CCc4cccnc43)C2)C1 (stereo not shown) [Example 336, 2-((6,7-dihydro-5H-cyclopenta[b]pyridin-7-yl)methyl)-7-(2-methoxyphenyl)-2,7-diazaspiro[4.4]nonane]
17 | 120 | CC1(C)Oc2ccccc2C1CN1CCC(Oc2ccc(F)cc2)CC1 (stereo not shown) [Example 135, 1-((2,2-dimethyl-2,3-dihydrobenzofuran-3-yl)methyl)-4-(4-fluorophenoxy)piperidine]
18 | > 3160 | c1ccc(N2C[C@@H]3C[C@H]2CCN3CCC2CCc3cccnc32)cc1 (stereo partly drawn) [Example 323, 7-(2-((1S,5R)-6-phenyl-2,6-diazabicyclo[3.2.1]octan-2-yl)ethyl)-6,7-dihydro-5H-cyclopenta[b]pyridine]
19 | > 16700 | N#Cc1ccc(O[C@H]2CCN(CCN3CCc4ccccc4C3=O)C2)cc1 [Example 32, (S)-4-((1-(2-(1-oxo-3,4-dihydroisoquinolin-2(1H)-yl)ethyl)pyrrolidin-3-yl)oxy) benzonitrile]
20 | 1780 | Fc1cccc2c1C(CN1CCC(Oc3ccncc3)CC1)CC2 (stereo not shown) [Example 118, 4-((1-((7-fluoro-2,3-dihydro-1H-inden-1-yl)methyl)piperidin-4-yl)oxy)pyridine]
21 | 730 | C[C@@H]1C[C@@]2(CCc3ccccc3O2)CCN1CCO[C@H]1CCc2ccccc21 [Example 434, (2R,2′R)-1′-(2-(((S)-2,3-dihydro-1H-inden-1-yl)oxy)ethyl)-2′-methylspiro[chromane-2,4′-piperidine]]
22 | 9650 | c1ccc2c(c1)CC1(CCN(CC3Cc4ccncc4C3)CC1)O2 (stereo not shown) [Example 398, 1′-((6,7-dihydro-5H-cyclopenta[c]pyridin-6-yl)methyl)-3H-spiro[benzofuran-2,4′-piperidine]]
23 | > 10000 | CC(CN1CCc2ccccc2C1=O)N1CC[C@@H](Oc2ccc(F)cc2)C1 (stereo partly drawn) [Example 33, 2-(2-((R)-3-(4-fluorophenoxy)pyrrolidin-1-yl)propyl)-3,4-dihydroisoquinolin-1(2H)-one]
24 | > 10000 | c1cnc(OC2CCN(CC3Cc4cccnc4C3)CC2)nc1 (stereo not shown) [Example 157, 6-((4-(pyrimidin-2-yloxy)piperidin-1-yl)methyl)-6,7-dihydro-5H-cyclopenta[b]pyridine]

Row | SMILES | IC50 [nM]
25 | O[C@@H](COC1CCCCC1)CN1CC[C@@H]2C[C@H]1CN2c1ccccc1 [Example 327, (R)-1-(cyclohexyloxy)-3-((1S,5R)-6-phenyl-2,6-diazabicyclo[3.2.1]octan-2-yl)propan-2-ol] | > 3160
26 | c1ccc(CCN2C[C@H]3CC[C@@H](C2)N3c2ccccc2)cc1 [Example 298, (1R,5S)-3-phenethyl-8-phenyl-3,8-diazabicyclo[3.2.1]octane] | > 11000
27 | OC(CO[C@@H]1CCc2ccccc21)CN1CC[C@H](Oc2cccc(F)c2)C1 (stereo partly drawn) [Example 37, 1-(((R)-2,3-dihydro-1H-inden-1-yl)oxy)-3-((S)-3-(3-fluorophenoxy)pyrrolidin-1-yl)propan-2-ol] | 9010
28 | COc1ccc2c(c1)[C@H](CN1C[C@@H]3CC[C@H]1CN3c1ccccc1)CC2 (single isomer, unassigned) [Compound 312] | 430
29 | OC(CO[C@@H]1CCCc2ccccc21)CN1CC[C@H](Oc2ccc(F)cc2)C1 (stereo partly drawn) [Example 51, 1-((S)-3-(4-fluorophenoxy)pyrrolidin-1-yl)-3-(((R)-1,2,3,4-tetrahydronaphthalen-1-yl)oxy)propan-2-ol] | 490
30 | COc1ccc2c(c1)C(CN1C[C@H]3CC[C@@H]1CN3c1ccccc1)CC2 (single isomer, unassigned) [Compound 313] | > 10000
31 | c1ccc(N2[C@@H]3C[C@H]2CN(CC2CCc4ccccc42)C3)cc1 (stereo partly drawn) [Example 293, (1R,5S)-3-((2,3-dihydro-1H-inden-1-yl)methyl)-6-phenyl-3,6-diazabicyclo[3.1.1]heptane] | 1020
